Our source for the light transmittance value values is patent publication US20150023884A1, “Antiperspirant Spray Devices and Compositions” (The Procter & Gamble Company, priority 2013, published 2015).

On the data set, the source says: Solubility may be determined by measuring the amount of light transmittance (a light transmittance value) through a simple mixture of the non-volatile silicone fluid and liquid activation enhancer at the same weight/weight concentrations as in a final antiperspirant composition.
Solubility of a liquid activation enhancer in a non-volatile silicone may be determined by measuring the amount of light transmittance (light transmittance value) through a simple mixture of the non-volatile silicone fluid and liquid activation enhancer at the same weight/weight concentrations as in a final antiperspirant composition.
The Spectronic Genesys 10 Vis utilizes a tungsten-halogen light source and has a spectral bandwidth of 5 nm, a wavelength range of 325 to 1100 nm, accuracy of ±1 nm and a repeatability of ±0.5 nm. Readouts include absorbance, transmittance and concentration. The spectrophotometer is set to 640 nm wavelength and the percent transmittance mode/readout. Polystyrene spectrometer cuvettes having a 1 cm optical light path and transmittance between ˜340 nm and ˜900 nm are used. One suitable example of a spectrometer cuvette is available from VWR International LLC under Catalog #97000-584 having a 2.5 to 4.5 ml capacity. […] The sample cuvettes are shaken well just prior to taking a light transmittance reading.

As for `CCCCCCCCCCCCCCCCCC(=O)OCCCC` [butyl stearate], the light transmittance value result was “about 100%”.

Take `CCCCCCCCCCCCCC(C)C` [isohexadecane]: the light transmittance value result is “about 100%”.
